According to US9006440B2, “Furopyridine derivatives” (Merck Patent GmbH, priority 2010, dated 2015):

Columns and labels:
KDR = molecular target: T1, KDR (Homo sapiens, UniProt P35968); experiment: KDR enzymatic assay (Caliper LifeSciences technology); format: biochemical
T1 construct: purchased BPS Bioscience, CA, USA
How it was run: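 Off-chip mobility-shift assay measuring conversion of a fluorescently labelled peptide substrate, in 100 mM HEPES pH 7.5, 1 mM DTT, 1 mM MgCl2 and 0.015% Brij-35. Reactions ran 90 min at 25 C and were stopped with EDTA. IC50s were derived from percent-conversion dose-response curves.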

Syk = molecular target: T2, Syk (Homo sapiens, UniProt P43405); experiment: Syk enzyme assay (SYK flash plate assay / Caliper mobility shift); format: biochemical
T2 construct: purchased BPS Bioscience, CA, USA
How it was run: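 Flashplate format: 2.5 nM SYK, 400 nM biotinylated peptide, 10 μM ATP with 33P-ATP, pH 7.5, 1 h at 30 °C; radioactivity read, staurosporine background. Caliper format: 90 min at 25 °C, mobility-shift read of substrate-to-product conversion; IC50 from dose-response curve.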

Zap70 = molecular target: T3, Zap70 (Homo sapiens, UniProt P43403); experiment: ZAP-70 enzymatic assay (Caliper LifeSciences technology); format: biochemical
T3 construct: purchased BPS Bioscience, CA, USA
T3 sequence (P43403 1-619): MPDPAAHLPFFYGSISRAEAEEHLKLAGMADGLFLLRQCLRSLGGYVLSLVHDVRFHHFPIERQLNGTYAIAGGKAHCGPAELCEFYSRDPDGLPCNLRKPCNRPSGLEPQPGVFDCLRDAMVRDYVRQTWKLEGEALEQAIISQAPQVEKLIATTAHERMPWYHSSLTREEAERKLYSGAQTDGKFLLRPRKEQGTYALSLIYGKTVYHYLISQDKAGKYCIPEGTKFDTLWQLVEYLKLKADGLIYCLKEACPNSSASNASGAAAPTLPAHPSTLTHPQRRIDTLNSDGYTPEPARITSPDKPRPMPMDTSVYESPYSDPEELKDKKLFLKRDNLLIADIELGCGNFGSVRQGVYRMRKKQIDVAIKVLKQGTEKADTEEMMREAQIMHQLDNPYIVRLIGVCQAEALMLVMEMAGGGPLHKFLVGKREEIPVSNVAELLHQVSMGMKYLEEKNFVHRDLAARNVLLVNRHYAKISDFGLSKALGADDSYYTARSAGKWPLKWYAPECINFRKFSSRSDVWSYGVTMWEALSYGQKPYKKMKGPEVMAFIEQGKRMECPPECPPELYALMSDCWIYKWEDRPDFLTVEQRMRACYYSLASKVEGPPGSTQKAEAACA
Method: (§1) The assays described here are performed on the Caliper Life Sciences LC3000 system This technology provides data on enzyme activity via measurement of the relative amounts of phosphorylated or unphosphorylated fluorescently labelled substrate peptide at the end of an enzymatic reaction. These different states of peptide are resolved by applying a potential difference across the sample. The presence of the charged phosphate group on the product (as opposed to the substrate) causes a different peptide mobility between the two peptides. This is visualized by excitation of the fluorescent label on the substrate and product peptides and represented as peaks within the analysis software.
(§2) In order to measure inhibitor activity of kinase inhibitors on this technology, a TTP Mosquito liquid handling instrument is used to place 0.25 ul of the appropriate concentration of inhibitor in 100% DMSO (for a dose response curve calculation) into each well of a 384-well plate. To this reaction components are added to a final volume of 25 ul. The table below indicates the sequences and concentrations for the assays described in this report. Standard components are 1 mM DTT (Sigma, D0632), 1 mM MgCl2 (Sigma, M1028), 100 mM HEPES pH 7.5 (Calbiochem, 391338), 0.015% Brij-35 (Sigma, B4184).
(§3) The reaction is incubated for 90 min at 25 C, and then stopped by the addition of 70 ul of Stop buffer (100 mM HEPES pH 7.5, 0.015% Brij-35, 10 mM EDTA (Sigma, E7889)).
(§4) The plate is read on a Caliper LC 3000 in an Off-Chip mobility shift assay format, on a 12-sipper chip. Unphosphorylated substrate and phosphorylated product peptide resolve as separate peaks allowing direct measurement of percentage of conversion of substrate to product. The percent conversion can be plotted against concentration of inhibitor to produce a sigmoidal dose response curve, from which an IC50 can be calculated using GeneData Condoseo or a similar product.

BTK = molecular target: T4, BTK (Homo sapiens, UniProt Q06187); experiment: BTK enzymatic assay (Caliper LifeSciences technology); format: biochemical
T4 construct: purchased Carna Bioscience, Kobe, Japan
T4 sequence (Q06187 whole entry): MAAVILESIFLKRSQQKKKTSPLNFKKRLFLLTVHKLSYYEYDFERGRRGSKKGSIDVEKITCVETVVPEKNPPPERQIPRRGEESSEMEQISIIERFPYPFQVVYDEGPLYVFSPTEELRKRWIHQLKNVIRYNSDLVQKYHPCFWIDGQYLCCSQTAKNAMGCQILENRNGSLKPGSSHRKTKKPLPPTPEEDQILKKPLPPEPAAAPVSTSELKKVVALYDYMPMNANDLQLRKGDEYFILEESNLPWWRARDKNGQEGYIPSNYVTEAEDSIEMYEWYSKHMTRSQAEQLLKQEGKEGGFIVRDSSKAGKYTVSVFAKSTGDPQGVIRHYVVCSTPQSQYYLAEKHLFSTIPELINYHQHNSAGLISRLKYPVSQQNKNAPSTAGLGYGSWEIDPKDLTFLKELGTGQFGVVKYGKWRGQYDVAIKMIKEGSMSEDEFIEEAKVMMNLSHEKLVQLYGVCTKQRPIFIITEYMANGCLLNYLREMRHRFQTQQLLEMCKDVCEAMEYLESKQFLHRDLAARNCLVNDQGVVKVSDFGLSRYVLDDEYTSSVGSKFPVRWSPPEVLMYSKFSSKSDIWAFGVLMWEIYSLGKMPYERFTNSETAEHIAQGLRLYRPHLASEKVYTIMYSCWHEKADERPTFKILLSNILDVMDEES
Method: as §1, §2, §3, §4

SRC = molecular target: T5, SRC (Homo sapiens, UniProt P12931); experiment: Src enzymatic assay (Caliper LifeSciences technology); format: biochemical
T5 construct: purchased Carna Bioscience, Kobe, Japan
T5 sequence (P12931 whole entry): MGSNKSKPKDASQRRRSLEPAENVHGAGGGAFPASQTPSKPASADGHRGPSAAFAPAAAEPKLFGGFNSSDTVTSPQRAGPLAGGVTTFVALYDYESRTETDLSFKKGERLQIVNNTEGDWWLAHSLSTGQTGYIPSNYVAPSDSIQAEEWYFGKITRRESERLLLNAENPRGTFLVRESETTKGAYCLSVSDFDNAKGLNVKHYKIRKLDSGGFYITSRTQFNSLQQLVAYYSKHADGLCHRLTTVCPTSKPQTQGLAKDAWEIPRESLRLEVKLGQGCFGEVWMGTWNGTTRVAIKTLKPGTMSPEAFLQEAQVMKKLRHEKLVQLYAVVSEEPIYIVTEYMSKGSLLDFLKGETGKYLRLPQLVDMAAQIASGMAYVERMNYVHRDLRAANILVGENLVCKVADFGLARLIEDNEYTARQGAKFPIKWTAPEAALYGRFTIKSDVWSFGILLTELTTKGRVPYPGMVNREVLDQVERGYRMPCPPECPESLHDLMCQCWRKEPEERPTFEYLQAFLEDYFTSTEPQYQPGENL
Method: as §1, §2, §3, §4

[1] = system: BLNK phosphorylation in Ramos cells; experiment: BCR crosslinking-induced BLNK phosphorylation (BLNK cell assay); format: cell-based; conditions: Homo sapiens
Method: 1. BCR Crosslinking-Induced BLNK Phosphorylation
Ramos cells incubated overnight in IMDM medium containing 5% FCS were resuspended in IMDM medium without serum (3.3×10^6 cells/ml). 90 μl of cell suspension (300′000 cells) were incubated with 10 μl of SYK inhibitors (in 3% DMSO) for 20 minutes at 37° C., in 96 well plates. After preincubation with inhibitors, cells were activated with 10 μg/ml of goat antihuman anti-IgM for 10 minutes at 37° C. After stimulation, cells were fixed by addition of 80 μl of 4% paraformaldehyde followed by a 10 minutes incubation at RT and […] in 0.1% Triton X-100 in PBS. BLNK phosphorylation was detected by flow cytometry after staining of the cells with anti-BLNK-pY84-PE antibodies from BD pharmingen, for 45 minutes at RT.
BLNK phosphorylation in CD19^+ peripheral blood mononuclear cells (PBMC) isolated from buffy coats of healthy volunteers was performed using the same protocol and staining the cells with a mixture of anti-BLNK-pY84-PE, anti CD-19 PerCp and Anti-IgM APC antibodies from BD Pharmingen.

murine model of RA = conditions: cited from earlier work
[2] = system: RA Phase II studies in humans; conditions: cited from earlier work

T1 sequence (P35968 20-1356): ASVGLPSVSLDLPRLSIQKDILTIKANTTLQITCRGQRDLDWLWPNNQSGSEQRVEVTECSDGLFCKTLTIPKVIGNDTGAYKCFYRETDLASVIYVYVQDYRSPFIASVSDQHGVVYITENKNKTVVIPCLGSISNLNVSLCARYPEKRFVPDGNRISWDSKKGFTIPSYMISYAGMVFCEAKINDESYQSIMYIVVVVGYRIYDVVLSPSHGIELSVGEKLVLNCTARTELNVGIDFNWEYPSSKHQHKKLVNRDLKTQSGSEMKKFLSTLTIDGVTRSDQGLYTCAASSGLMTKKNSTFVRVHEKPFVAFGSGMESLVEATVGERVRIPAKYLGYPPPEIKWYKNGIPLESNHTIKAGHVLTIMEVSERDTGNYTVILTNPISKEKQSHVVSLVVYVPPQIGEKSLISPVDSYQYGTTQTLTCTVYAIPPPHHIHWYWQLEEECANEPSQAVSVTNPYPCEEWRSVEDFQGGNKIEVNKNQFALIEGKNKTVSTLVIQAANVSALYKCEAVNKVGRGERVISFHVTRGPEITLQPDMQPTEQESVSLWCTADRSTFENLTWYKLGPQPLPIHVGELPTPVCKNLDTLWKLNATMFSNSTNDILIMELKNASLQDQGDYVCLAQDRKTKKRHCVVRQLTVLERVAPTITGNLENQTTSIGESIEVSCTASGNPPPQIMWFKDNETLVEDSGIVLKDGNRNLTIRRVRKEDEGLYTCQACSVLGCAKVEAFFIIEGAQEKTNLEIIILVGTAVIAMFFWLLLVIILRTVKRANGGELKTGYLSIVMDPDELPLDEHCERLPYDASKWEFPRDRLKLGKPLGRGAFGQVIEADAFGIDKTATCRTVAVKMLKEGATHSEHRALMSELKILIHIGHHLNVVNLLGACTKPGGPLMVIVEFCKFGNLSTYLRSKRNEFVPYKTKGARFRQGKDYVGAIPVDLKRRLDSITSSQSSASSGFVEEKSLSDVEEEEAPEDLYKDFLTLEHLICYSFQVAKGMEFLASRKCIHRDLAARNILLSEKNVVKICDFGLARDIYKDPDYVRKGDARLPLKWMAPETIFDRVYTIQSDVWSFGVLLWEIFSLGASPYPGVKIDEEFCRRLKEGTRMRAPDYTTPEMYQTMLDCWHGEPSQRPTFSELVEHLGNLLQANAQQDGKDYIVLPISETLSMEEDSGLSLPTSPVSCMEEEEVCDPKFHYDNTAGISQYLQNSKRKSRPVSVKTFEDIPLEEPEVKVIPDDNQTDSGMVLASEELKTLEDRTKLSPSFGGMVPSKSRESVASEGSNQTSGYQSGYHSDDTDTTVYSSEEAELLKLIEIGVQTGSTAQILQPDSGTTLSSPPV

| IC50 (KDR) | IC50 (Syk) | IC50 (Zap70) | IC50 (SRC) | SMILES | further results |
| --- | --- | --- | --- | --- | --- |
| 3 to 50 µM | < 0.3 µM | 0.3 to 3 µM | – | COc1cc(-c2cc3nccc(-c4cccc(N)c4)c3o2)cc(OC)c1OC [Compound A55, 3-[2-(3,4,5-Trimethoxy-phenyl)-furo[3,2-b]pyridin-7-yl]-phenylamine] | – |
| < 0.3 µM | < 0.3 µM | 3 to 50 µM | 0.3 to 3 µM | COc1cc(-c2cc3nccc(-c4cn[nH]c4)c3o2)cc(OC)c1OC [Compound C72] | IC50 (BTK): 3 to 50 µM |
| 3 to 50 µM | < 0.3 µM | 3 to 50 µM | – | COc1cc(NC(=O)[C@@H]2C[C@@H](O)CN2)cc(-c2cc3nccc(-c4ccccc4)c3o2)c1 [Compound C46] | – |
| 3 to 50 µM | 0.3 to 3 µM | 3 to 50 µM | 3 to 50 µM | COc1cc(-c2cc3nccc(-c4c[nH]c5ccccc45)c3o2)cc(OC)c1OC [Compound A25, 7-(1H-Indol-3-yl)-2-(3,4,5-trimethoxy-phenyl)-furo[3,2-b]pyridine] | – |
| < 0.3 µM | < 0.3 µM | 0.3 to 3 µM | 0.3 to 3 µM | COc1cc(-c2cc3nccc(-c4cc[nH]n4)c3o2)cc(OC)c1OC [Compound C73] | IC50 (BTK): 3 to 50 µM |
| – | 0.3 to 3 µM | – | – | COc1cc(-c2cc3nccc(-c4ccc5[nH]ccc5c4)c3o2)cc(OC)c1OC [Compound B74, 7-(1H-Indol-5-yl)-2-(3,4,5-trimethoxyphenyl)furo[3,2-b]pyridine] | IC50 (BTK): 3 to 50 µM; IC50 [1]: 0.3 to 3 µM |
| 3 to 50 µM | < 0.3 µM | 3 to 50 µM | 0.3 to 3 µM | COc1cc(-c2cc3nccc(-c4c(OC)cccc4OC)c3o2)cc(OC)c1OC [Compound C2] | – |
| 3 to 50 µM | < 0.3 µM | 3 to 50 µM | – | COc1cc(-c2cc3nccc(-c4ccc(CO)nc4)c3o2)cc(OC)c1OC [Compound C27] | – |
| – | – | – | – | COc1cc(Nc2ncc(F)c(Nc3ccc4c(n3)NC(=O)C(C)(C)O4)n2)cc(OC)c1OC [Compound R406] | bone erosion (murine model of RA): significantly reduced; serum cytokine concentrations (murine model of RA): significantly reduced; clinical scores (murine model of RA; orally available): significant improvement; efficacy (ACR scores) [2]: ACR scores improvement; tolerability [2]: good tolerability |
| 0.3 to 3 µM | 0.3 to 3 µM | 3 to 50 µM | 3 to 50 µM | COc1cc(-c2cc3nccc(Nc4ccc5cn[nH]c5c4)c3o2)cc(OC)c1OC [Compound B15] | IC50 (BTK): 3 to 50 µM |
| 0.3 to 3 µM | < 0.3 µM | 0.3 to 3 µM | – | COc1cc(-c2cc3nccc(-c4ccc(N)cc4)c3o2)cc(OC)c1OC [Compound A56, 4-[2-(3,4,5-Trimethoxy-phenyl)-furo[3,2-b]pyridin-7-yl]-phenylamine] | – |
| 0.3 to 3 µM | < 0.3 µM | 3 to 50 µM | 3 to 50 µM | Cn1cc(-c2ccnc3cc(-c4cccc(N)c4)oc23)cn1 [Compound C29] | – |
| 3 to 50 µM | < 0.3 µM | 3 to 50 µM | 0.3 to 3 µM | COc1cc(-c2cc3nccc(-c4cccc(C(=O)NC5CCCCC5N)c4)c3o2)cc(OC)c1OC (stereo not shown) [Compound A45, N-(2-Amino-cyclohexyl)-3-[2-(3,4,5-trimethoxy-phenyl)-furo[3,2-b]pyridin-7-yl]-benzamide] | – |
| 0.3 to 3 µM | < 0.3 µM | 0.3 to 3 µM | 0.3 to 3 µM | COc1cc(-c2cc3nccc(-c4cnn(C)c4)c3o2)ccc1O [Compound C26] | – |
| < 0.3 µM | < 0.3 µM | – | < 0.3 µM | COc1cc(-c2cc3nccc(Nc4ccc5[nH]ccc5c4)c3o2)cc(OC)c1OC [Compound B30] | IC50 (BTK): 0.3 to 3 µM; IC50 [1]: 3 to 50 µM |
| 0.3 to 3 µM | < 0.3 µM | 3 to 50 µM | – | COc1cc(-c2cc3nccc(-c4cccc5[nH]ncc45)c3o2)cc(OC)c1OC [Compound A17, 7-(1H-Indazol-4-yl)-2-(3,4,5-trimethoxy-phenyl)-furo[3,2-b]pyridine] | – |
| 0.3 to 3 µM | 0.3 to 3 µM | 3 to 50 µM | – | COc1ccc(-c2cc3nccc(-c4ccccc4)c3o2)cc1NC(=O)[C@@H]1CCCN1 [Compound C30] | – |
| 0.3 to 3 µM | < 0.3 µM | 0.3 to 3 µM | – | COc1cc(-c2cc3nccc(-c4ccc5[nH]nnc5c4)c3o2)cc(OC)c1OC [Compound C70] | – |
| < 0.3 µM | 0.3 to 3 µM | < 0.3 µM | – | Cc1c(Nc2ccnc3cc(-c4ccc(CO)cc4)oc23)ccc2[nH]ccc12 [Compound B61, {4-[7-(4-Methyl-1H-indol-5-ylamino)-furo[3,2-b]pyridin-2-yl]-phenyl}-methanol] | – |
| < 0.3 µM | < 0.3 µM | – | < 0.3 µM | COc1cc(-c2cc3nccc(Nc4ccc5[nH]ccc5c4C)c3o2)cc(OC)c1OC [Compound B22] | IC50 (BTK): 0.3 to 3 µM; IC50 [1]: 3 to 50 µM |
| 3 to 50 µM | < 0.3 µM | 0.3 to 3 µM | 3 to 50 µM | COc1cc(-c2cc3nccc(-c4ccc(C(=O)O)cc4)c3o2)cc(OC)c1OC [Compound A42, 4-[2-(3,4,5-Trimethoxy-phenyl)-furo[3,2-b]pyridin-7-yl]-benzoic acid] | – |
| 0.3 to 3 µM | < 0.3 µM | 3 to 50 µM | – | COc1cc(-c2cc3nccc(-c4cccc(C(=O)NCc5n[nH]c(=O)[nH]5)c4)c3o2)cc(OC)c1OC [Compound C12] | – |
| 0.3 to 3 µM | < 0.3 µM | 3 to 50 µM | 3 to 50 µM | COc1cc(-c2cc3nccc(-c4ccc5[nH]cnc5c4)c3o2)cc(OC)c1OC [Compound C60] | – |
| – | < 0.3 µM | 3 to 50 µM | < 0.3 µM | COc1cc(-c2cc3nccc(-c4ccnc(NCC5CCCNC5)c4)c3o2)cc(OC)c1OC (stereo not shown) [Compound C185] | – |
| – | < 0.3 µM | – | – | COc1cc(-c2cc3nccc(-c4ccccc4)c3o2)cc(OC)c1OC [Compound A5, 7-Phenyl-2-(3,4,5-trimethoxy-phenyl)-furo[3,2-b]pyridine] | IC50 [1]: 3 to 50 µM |
| 0.3 to 3 µM | 0.3 to 3 µM | 3 to 50 µM | – | COCC(O)Cn1cc(-c2ccnc3cc(-c4cc(OC)c(OC)c(OC)c4)oc23)cn1 (stereo not shown) [Compound C66] | – |
| 3 to 50 µM | < 0.3 µM | 3 to 50 µM | – | COc1cc(-c2cc3nccc(-c4ccc5c(c4)NC(=O)C5)c3o2)cc(OC)c1OC [Compound B71, 6-(2-(3,4,5-Trimethoxyphenyl)furo[3,2-b]pyridin-7-yl)indolin-2-one] | IC50 [1]: 3 to 50 µM |
